{
  "source": "PubChem BioAssay AID1963828",
  "about": "(Molecular Pharmacology Branch, DTP, NCI, 2024)",
  "tested_on": "991263-137-R1-J2-PDC complex spheroid viability",
  "experiment": "Anticancer human tumor 991263-137-R1-J2-PDC patient-derived colon adenocarcinoma cell line growth inhibition [POLQ]",
  "settings": "for viability, T/C: stronger effect = lower value",
  "protocol": "Multicellular complex tumor spheroid response to Polymerase (POL) inhibitors (novobiocin, ART-558, RP6685) in combination with a variety of drugs and investigational agents in selected tumor cell lines\nThe POL inhibitors (novobiocin, ART-558, and RP6685) were evaluated both individually and in combination with standard of care and investigational anticancer small molecules within a complex spheroid model of solid tumors. . Complex spheroids include a stromal component modeled by human endothelial cells (HUVEC) and fibroblasts modeled by human mesenchymal stem cells (MSCs). The concentration ranges selected for each drug and investigational agent were based upon clinically achievable concentrations if the clinical Cmax of the agent was known.\nCompounds. The drugs and investigational agents: novobiocin (NSC847541), ART-558 (NSC835418), RP-6685 (NSC848927), peposertib (NSC802822), ceralasertib (NSC780249), elimusertib (NSC800525), camonsertib (NSC841442), AZD-1390 (NSC803789), olaparib (NSC753686), talazoparib (NSC767125), rucaparib (NSC756644), sotorasib (NSC818433), MRTX-1133 (NSC836407), SN-38 (NSC673596), topotecan (NSC609699), epotoside (NSC141540), doxorubicin (NSC123127), gemcitabine (NSC613327), 5-fluorouracil (NSC19893), paclitaxel (NSC125973), vemurafenib (NSC761431), MSA-2 (NSC828583), SN-011 (NSC837082), adavosertib (NSC754352), prexasertib (NSC758257), carboplatin (NSC241240) and oxaliplatin (NSC266046), were obtained from the National Cancer Institute (NCI) Developmental Therapeutics Program Chemical Repository (21). The FDA-approved anticancer drug set is available from the Developmental Therapeutics Program at https://dtp.cancer.gov/organization/dscb/obtaining/. […] The stock solutions were prepared in dimethyl sulfoxide (DMSO, Sigma-Aldrich, St. Louis, MO, cat. D2650), except for the platinum compounds which were prepared in saline (Quality Biological, Gaithersburg, MD, cat. 114-055-101), at 800-fold the tested concentration and stored at -70 degrees C prior to their use. All drugs and investigational agents were tested over a range starting from a high concentration at or near the clinical Cmax and decreasing in half-log increments. If the clinical Cmax for an agent had not been determined, the highest concentration tested was 10 microM, except for SN-38, which was tested at a high concentration of 1 microM.\nCell Culture. All cells were maintained in an incubator at 37 degrees C and 5% CO2 with 95% humidity. The PDC lines were cultured according to standard operating procedures established by the NCI PDMR (https://pdmr.cancer.gov). Table 3 of the manuscript, lists the cell lines along with the number of the three cell types plated to form the mct-spheroids and media for tumor cell growth. After thawing, all PDC lines, except 997537-175-T-J1-PDC and 415267-285-R-J2-PDC, were cultured in Matrigel-coated flasks prepared with a working solution of 1X Ham's F-12 nutrient mix, without supplementation (Thermo Fisher Scientific, cat. 11765054), 100 U/mL penicillin-streptomycin (Thermo Fisher Scientific, cat. 15140122), and 2.5% Matrigel (Corning Inc., Corning, NY, cat. 354248) for the first three passages. The two PDC lines 997537-175-T-J1-PDC and 415267-285-R-J2-PDC were cultured on uncoated flasks. The 857933-349-R-J2-PDC line was cultured in 6C/Colon 1B media containing advanced DMEM/F-12 (Thermo Fisher Scientific, cat. 12634028), 10 mM HEPES (Thermo Fisher Scientific, cat. 15630080), 1X GlutaMAX supplement (Thermo Fisher Scientific, cat. 35050061), 0.1 mg/mL primocin (InvivoGen, San Diego, CA, cat. ant-pm-2), 10% defined fetal bovine serum, heat inactivated (HyClone Laboratories Inc., Logan, UT, cat. SH30070.03HI), 50% L-WRN conditioned media (ATCC, cat. CRL-3276), 1.25 mM N-Acetyl-L-cysteine (Sigma-Aldrich, cat. A9165), 10 mM nicotinamide (Sigma-Aldrich, cat. N0636), 1X B-27 supplement (Thermo Fisher Scientific, cat. 17504044), 1X N-2 supplement (Thermo Fisher Scientific, cat. […]",
  "note": "Several values for one entry are separate records, joined by “and”; a condition that tells them apart may be missing. Equal values may be shown once.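 Further: spheroids exposed to compounds for 7 days before readout.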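 Wherever viability, T/C is given: 100% = DMSO vehicle control viability.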",
  "data": [
    {"smiles": "CC1COCCN1c1cc(C2(O)CC3CCC(C2)O3)c2cnn(-c3ccn[nH]3)c2n1", "note": "(configuration not stated)", "values": [
      {"measurement": "viability, T/C", "setting": "compound 0.0316 µM", "value": "103% and 87.7% and 99%"},
      {"measurement": "viability, T/C", "setting": "compound 0.1 µM", "value": "95.7% and 94% and 86.5%"},
      {"measurement": "viability, T/C", "setting": "compound 0.316 µM", "value": "88.2% and 74.1% and 73.4%"},
      {"measurement": "viability, T/C", "setting": "compound 1 µM", "value": "56.8% and 58.5% and 54.9%"},
      {"measurement": "viability, T/C", "setting": "compound 3.16 µM", "value": "36.5% and 33.8% and 36.9%"},
      {"measurement": "viability, T/C", "setting": "compound 10 µM", "value": "30.4% and 26.9% and 29.3%"},
      {"measurement": "IC50", "setting": "curve of compound", "value": "1500 nM and 1410 nM and 1350 nM"}
    ]},
    {"smiles": "Nc1ccn(C2OC(CO)C(O)C2(F)F)c(=O)n1", "note": "(configuration not stated) + Nc1ccc(C#CCN(C(=O)Cc2ncc(C(F)(F)F)cc2C(F)(F)F)c2ccc(F)cc2)nn1", "values": [
      {"measurement": "IC50", "setting": "curve of first compound, second compound 0.0316 µM", "value": 5740, "unit": "nM"},
      {"measurement": "IC50", "setting": "curve of first compound, second compound 0.1 µM", "value": "> 10000", "unit": "nM"},
      {"measurement": "IC50", "setting": "curve of first compound, second compound 0.316 µM", "value": 5300, "unit": "nM"},
      {"measurement": "IC50", "setting": "curve of first compound, second compound 1 µM", "value": "> 10000", "unit": "nM"},
      {"measurement": "IC50", "setting": "curve of first compound, second compound 3.16 µM", "value": "> 10000", "unit": "nM"},
      {"measurement": "IC50", "setting": "curve of first compound, second compound 10 µM", "value": "> 10000", "unit": "nM"},
      {"measurement": "viability, T/C", "setting": "second compound 0.0316 µM, first compound 0.0316 µM", "value": 96.1, "unit": "%"},
      {"measurement": "viability, T/C", "setting": "second compound 0.0316 µM, first compound 0.1 µM", "value": 75.6, "unit": "%"},
      {"measurement": "viability, T/C", "setting": "second compound 0.0316 µM, first compound 0.316 µM", "value": 64.4, "unit": "%"},
      {"measurement": "viability, T/C", "setting": "second compound 0.0316 µM, first compound 1 µM", "value": 58.4, "unit": "%"},
      {"measurement": "viability, T/C", "setting": "second compound 0.0316 µM, first compound 3.16 µM", "value": 55.2, "unit": "%"},
      {"measurement": "viability, T/C", "setting": "second compound 0.0316 µM, first compound 10 µM", "value": 45.8, "unit": "%"},
      {"measurement": "viability, T/C", "setting": "second compound 0.1 µM, first compound 0.0316 µM", "value": 89.6, "unit": "%"},
      {"measurement": "viability, T/C", "setting": "second compound 0.1 µM, first compound 0.1 µM", "value": 77.5, "unit": "%"},
      {"measurement": "viability, T/C", "setting": "second compound 0.1 µM, first compound 0.316 µM", "value": 59.2, "unit": "%"},
      {"measurement": "viability, T/C", "setting": "second compound 0.1 µM, first compound 1 µM", "value": 61.7, "unit": "%"},
      {"measurement": "viability, T/C", "setting": "second compound 0.1 µM, first compound 3.16 µM", "value": 59.9, "unit": "%"},
      {"measurement": "viability, T/C", "setting": "second compound 0.1 µM, first compound 10 µM", "value": 47.6, "unit": "%"},
      {"measurement": "viability, T/C", "setting": "second compound 0.316 µM, first compound 0.0316 µM", "value": 94.3, "unit": "%"},
      {"measurement": "viability, T/C", "setting": "second compound 0.316 µM, first compound 0.1 µM", "value": 74.1, "unit": "%"},
      {"measurement": "viability, T/C", "setting": "second compound 0.316 µM, first compound 0.316 µM", "value": 65.9, "unit": "%"},
      {"measurement": "viability, T/C", "setting": "second compound 0.316 µM, first compound 1 µM", "value": 64.2, "unit": "%"},
      {"measurement": "viability, T/C", "setting": "second compound 0.316 µM, first compound 3.16 µM", "value": 57.3, "unit": "%"},
      {"measurement": "viability, T/C", "setting": "second compound 0.316 µM, first compound 10 µM", "value": 43.1, "unit": "%"},
      {"measurement": "viability, T/C", "setting": "second compound 1 µM, first compound 0.0316 µM", "value": 92.6, "unit": "%"},
      {"measurement": "viability, T/C", "setting": "second compound 1 µM, first compound 0.1 µM", "value": 68.3, "unit": "%"},
      {"measurement": "viability, T/C", "setting": "second compound 1 µM, first compound 0.316 µM", "value": 69.5, "unit": "%"},
      {"measurement": "viability, T/C", "setting": "second compound 1 µM, first compound 1 µM", "value": 59.8, "unit": "%"},
      {"measurement": "viability, T/C", "setting": "second compound 1 µM, first compound 3.16 µM", "value": 55.8, "unit": "%"},
      {"measurement": "viability, T/C", "setting": "second compound 1 µM, first compound 10 µM", "value": 50.2, "unit": "%"},
      {"measurement": "viability, T/C", "setting": "second compound 3.16 µM, first compound 0.0316 µM", "value": 104, "unit": "%"},
      {"measurement": "viability, T/C", "setting": "second compound 3.16 µM, first compound 0.1 µM", "value": 82.1, "unit": "%"},
      {"measurement": "viability, T/C", "setting": "second compound 3.16 µM, first compound 0.316 µM", "value": 69.4, "unit": "%"},
      {"measurement": "viability, T/C", "setting": "second compound 3.16 µM, first compound 1 µM", "value": 62.5, "unit": "%"},
      {"measurement": "viability, T/C", "setting": "second compound 3.16 µM, first compound 3.16 µM", "value": 63.4, "unit": "%"},
      {"measurement": "viability, T/C", "setting": "second compound 3.16 µM, first compound 10 µM", "value": 51.2, "unit": "%"},
      {"measurement": "viability, T/C", "setting": "second compound 10 µM, first compound 0.0316 µM", "value": 104, "unit": "%"},
      {"measurement": "viability, T/C", "setting": "second compound 10 µM, first compound 0.1 µM", "value": 89.6, "unit": "%"},
      {"measurement": "viability, T/C", "setting": "second compound 10 µM, first compound 0.316 µM", "value": 71.1, "unit": "%"},
      {"measurement": "viability, T/C", "setting": "second compound 10 µM, first compound 1 µM", "value": 69.5, "unit": "%"},
      {"measurement": "viability, T/C", "setting": "second compound 10 µM, first compound 3.16 µM", "value": 64.3, "unit": "%"},
      {"measurement": "viability, T/C", "setting": "second compound 10 µM, first compound 10 µM", "value": 60.7, "unit": "%"}
    ]},
    {"smiles": "CC(=O)O[C@H]1C(=O)[C@@]2(C)[C@H]([C@H](OC(=O)c3ccccc3)[C@]3(O)C[C@H](OC(=O)[C@H](O)[C@@H](NC(=O)c4ccccc4)c4ccccc4)C(C)=C1C3(C)C)[C@]1(OC(C)=O)CO[C@@H]1C[C@@H]2O", "values": [
      {"measurement": "viability, T/C", "setting": "compound 0.00949 µM", "value": "79.8% and 86.8% and 96.5%"},
      {"measurement": "viability, T/C", "setting": "compound 0.03 µM", "value": "85.2% and 89.3% and 87.6%"},
      {"measurement": "viability, T/C", "setting": "compound 0.0949 µM", "value": "85.4% and 84% and 87.8%"},
      {"measurement": "viability, T/C", "setting": "compound 0.3 µM", "value": "73.3% and 77.9% and 82.3%"},
      {"measurement": "viability, T/C", "setting": "compound 0.949 µM", "value": "52.2% and 63.6% and 54.8%"},
      {"measurement": "viability, T/C", "setting": "compound 3 µM", "value": "46.8% and 47.3% and 44.4%"},
      {"measurement": "IC50", "setting": "curve of compound", "value": "1450 nM and 2480 nM and 1630 nM"}
    ]},
    {"smiles": "Nc1ccn(C2OC(CO)C(O)C2(F)F)c(=O)n1", "note": "(configuration not stated)", "values": [
      {"measurement": "viability, T/C", "setting": "compound 0.0316 µM", "value": "90.8% and 85.4% and 75.5%"},
      {"measurement": "viability, T/C", "setting": "compound 0.1 µM", "value": "53.7% and 74.1% and 58.9%"},
      {"measurement": "viability, T/C", "setting": "compound 0.316 µM", "value": "69% and 61.1% and 58.6%"},
      {"measurement": "viability, T/C", "setting": "compound 1 µM", "value": "58.6% and 60.4% and 47.9%"},
      {"measurement": "viability, T/C", "setting": "compound 3.16 µM", "value": "37.6% and 56.2% and 37.2%"},
      {"measurement": "viability, T/C", "setting": "compound 10 µM", "value": "40.8% and 47% and 37.3%"}
    ]}
  ]
}
